{
  "source": "paper PMC9032718",
  "about": "“Eltrombopag as an Allosteric Inhibitor of the METTL3-14 Complex Affecting the m^6A Methylation of RNA in Acute Myeloid Leukemia Cells” (Pharmaceuticals, 2022)",
  "key": {"[1]": {"target": "T1, METTL3-14 complex (Homo sapiens, UniProt Q86U44)", "T1 construct": "genes encoding the full-length and MTase domain of human METTL3; METTL3-14 FL: full length of METTL3-14; 10x His (thrombin-cleavable) (cleaved yes); made in house; host or cells: Trichoplusia ni (Hi5) cells co-infected with two baculoviruses (virus made in Sf9)", "T1 sequence (Q86U44 whole entry, the tested form may be a part)": "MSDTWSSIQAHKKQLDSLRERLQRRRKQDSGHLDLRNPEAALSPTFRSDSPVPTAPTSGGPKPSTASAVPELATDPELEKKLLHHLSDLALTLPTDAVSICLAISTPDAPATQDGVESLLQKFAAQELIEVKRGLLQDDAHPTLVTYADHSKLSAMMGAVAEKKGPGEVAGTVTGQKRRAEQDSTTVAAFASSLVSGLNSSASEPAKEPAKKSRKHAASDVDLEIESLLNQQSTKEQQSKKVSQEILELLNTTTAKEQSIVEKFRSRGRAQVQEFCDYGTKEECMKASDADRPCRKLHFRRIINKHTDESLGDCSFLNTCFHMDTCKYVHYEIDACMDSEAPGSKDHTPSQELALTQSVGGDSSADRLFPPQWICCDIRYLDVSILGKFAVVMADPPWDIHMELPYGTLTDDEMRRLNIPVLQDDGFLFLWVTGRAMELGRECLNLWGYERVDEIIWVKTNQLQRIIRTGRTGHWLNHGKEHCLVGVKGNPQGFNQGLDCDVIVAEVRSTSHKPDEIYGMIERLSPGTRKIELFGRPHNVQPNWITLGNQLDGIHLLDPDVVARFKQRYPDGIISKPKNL", "T1 sequence (Q9HCE5 whole entry partner, the tested form may be a part)": "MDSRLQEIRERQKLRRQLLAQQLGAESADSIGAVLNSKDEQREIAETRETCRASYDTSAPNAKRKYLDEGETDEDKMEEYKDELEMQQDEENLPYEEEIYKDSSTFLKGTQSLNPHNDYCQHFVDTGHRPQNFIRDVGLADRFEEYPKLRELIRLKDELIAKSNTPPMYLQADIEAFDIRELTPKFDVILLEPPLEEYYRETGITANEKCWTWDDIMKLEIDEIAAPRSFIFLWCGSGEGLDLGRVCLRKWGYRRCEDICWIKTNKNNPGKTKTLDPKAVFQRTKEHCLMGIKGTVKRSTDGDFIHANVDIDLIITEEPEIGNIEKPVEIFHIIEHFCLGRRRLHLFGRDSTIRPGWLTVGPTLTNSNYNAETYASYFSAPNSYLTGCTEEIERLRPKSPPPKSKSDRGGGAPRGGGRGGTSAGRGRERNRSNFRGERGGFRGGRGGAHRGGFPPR", "test": "METTL3-14 enzyme-based bioluminescence assay (screening assay)", "type": "biochemical", "conditions": "IC50 not affected by SAM 50-1600 nM or RNA 25-800 nM", "method": "An enzymatic bioluminescence assay was established to identify the METTL3-14 inhibitor through screening. […] METTL3-14 activity was assessed by measuring the luminescence using a Victor multilabel reader (PerkinElmer, Waltham, MA, USA). The IC50 values were calculated by a nonlinear regression analysis using OriginPro 9.1 software (OriginLab).\nTo confirm the mechanism of action of eltrombopag in the METTL3-14 complex, 30 nM METTL3-14 and serially diluted eltrombopag were reacted with various concentrations of SAM or RNA substrate and saturating concentrations of the other substrate (3 μM SAM or 2 μM RNA substrate) for 20 min. To evaluate the inhibitory activity in a single form of METTL3 and METTL14, 1 μM of METTL3 and 300 nM of METTL14 were incubated with 1 μM of SAM, 500 nM of RNA substrates, and serially diluted eltrombopag for 5 h. To measure the inhibitory activity in the truncated form of the METTL3-14 complex, 1 μM of the truncated METTL3-14 complex was reacted with 1 μM of SAM, 500 nM of RNA substrates, and serially diluted eltrombopag for 5 h."}, "[2]": {"target": "T2, MLL4 complex (Homo sapiens, UniProt Q9UMN6)", "T2 construct": "purchased Reaction Biology (Malvern, PA, USA), contract assay", "test": "Methyltransferase selectivity panel (MT HotSpot radioisotope assay), MLL4 complex", "type": "biochemical", "conditions": "10 μM eltrombopag", "method": "(§1) The selectivity profile of eltrombopag was investigated by testing the level of inhibition in a methyltransferase panel. The inhibition of 7 […] methyltransferase was tested at Reaction Biology (Malvern, PA, USA) using a gold standard radioisotope-based MT assay (MT HotSpot^TM) with 10 μM of eltrombopag in duplicate."}, "[3]": {"target": "T3, PRDM9 (Homo sapiens, UniProt Q9NQV7)", "T3 construct": "purchased Reaction Biology (Malvern, PA, USA), contract assay", "T3 sequence (Q9NQV7 whole entry)": "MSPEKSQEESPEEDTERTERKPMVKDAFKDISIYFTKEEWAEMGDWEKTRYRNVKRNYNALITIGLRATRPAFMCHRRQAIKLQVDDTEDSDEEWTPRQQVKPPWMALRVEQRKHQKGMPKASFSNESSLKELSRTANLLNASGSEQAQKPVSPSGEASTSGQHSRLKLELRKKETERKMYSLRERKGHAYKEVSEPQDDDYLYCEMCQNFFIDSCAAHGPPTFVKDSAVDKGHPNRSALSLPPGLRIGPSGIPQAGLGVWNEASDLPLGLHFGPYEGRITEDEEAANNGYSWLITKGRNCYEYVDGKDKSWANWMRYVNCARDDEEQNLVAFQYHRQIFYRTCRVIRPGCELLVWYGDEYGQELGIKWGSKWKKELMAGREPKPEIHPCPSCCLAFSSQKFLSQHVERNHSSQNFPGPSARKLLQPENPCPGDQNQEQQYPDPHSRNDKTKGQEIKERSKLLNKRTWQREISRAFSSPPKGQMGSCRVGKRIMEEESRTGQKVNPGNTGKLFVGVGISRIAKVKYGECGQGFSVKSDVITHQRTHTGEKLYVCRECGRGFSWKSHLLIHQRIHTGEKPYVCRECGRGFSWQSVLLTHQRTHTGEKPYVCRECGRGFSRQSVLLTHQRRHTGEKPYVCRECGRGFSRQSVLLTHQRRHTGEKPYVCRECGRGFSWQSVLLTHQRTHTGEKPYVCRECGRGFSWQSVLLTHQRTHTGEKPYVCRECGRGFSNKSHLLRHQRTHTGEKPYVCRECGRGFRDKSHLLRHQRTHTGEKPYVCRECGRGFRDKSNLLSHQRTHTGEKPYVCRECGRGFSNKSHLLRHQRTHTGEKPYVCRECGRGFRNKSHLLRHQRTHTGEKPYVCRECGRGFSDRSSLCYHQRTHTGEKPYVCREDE", "test": "Methyltransferase selectivity panel (MT HotSpot radioisotope assay), PRDM9", "type": "biochemical", "conditions": "10 μM eltrombopag", "method": "as §1"}, "[4]": {"tested_on": "MOLM-14 cells", "test": "Anti-proliferative assay (EZ-cytox), MOLM-14", "type": "cell-based", "conditions": "Homo sapiens, MOLM-14, 72 h", "method": "(§2) The MOLM-13, MOLM-14, HL60, MV4-11, and THP-1 cells were seeded in white 96-well clear bottomed plates with 100 μL of medium (5000 cells/well). The plated cells were treated with serially diluted compounds and incubated for 72 h at 37 °C. After incubation, 10 μL of EZ-cytox kit reagent from the EZ-cytox cell viability assay kit (DaeiLab, Seoul, Korea) was added to each well and then incubated for 3 h at 37 °C. The absorbance of metabolically active cells was measured at a wavelength of 450 nm using a Victor multilabel reader (PerkinElmer). The GI50 values were calculated by nonlinear regression analysis using OriginPro 9.1 software (OriginLab)."}, "[5]": {"tested_on": "HL60 cells", "test": "Anti-proliferative assay (EZ-cytox), HL60", "type": "cell-based", "conditions": "Homo sapiens, HL-60, 72 h", "method": "as §2"}, "[6]": {"tested_on": "MV4-11 cells", "test": "Anti-proliferative assay (EZ-cytox), MV4-11", "type": "cell-based", "conditions": "Homo sapiens, MV4-11, 72 h", "method": "as §2"}, "[7]": {"tested_on": "m^6A/A on poly-A+-enriched mRNA of MOLM-13 cells", "test": "Quantitative analysis of m^6A level on poly-A+-enriched mRNA by mass spectrometry", "type": "cell-based", "conditions": "Homo sapiens", "method": "The MOLM-13 cells were seeded in 10 cm^2 dishes at a density of 1.5 × 10^6 cells/mL with 10 mL of complete medium. After 24 h, the plated cells were treated with the vehicle (DMSO) or serial dilutions of eltrombopag and incubated for 24 h. Following incubation in the cell culture incubator, total RNA was extracted using TRIsure^TM (Bioline, Brisbane, Australia) according to the manufacturer’s instructions. Then, poly-A^+-enriched mRNA was purified from the extracted total RNA using the Magnosphere^TM ultrapure mRNA purification kit (Takara, Shiga, Japan). One microgram of mRNA was digested to the nucleosides using 2 units of nuclease P1 (NEB) and dephosphorylated using 1 unit of alkaline phosphatase (NEB) at 37 °C for 2 h.\nThe produced nucleosides were detected by reversed-phase high-performance liquid chromatography on an ACQUITY BEH C18 column (1.7 μm, 2.1 mm × 50 mm; Waters) coupled with mass spectrometry detection using an EVOQ Elite ER LC-TQ (Bruker). The adenosine and m^6A were quantified using MRM transition as follows: m/z = 267.9 -> 136.1 and m/z = 282.1 -> 150.1, respectively. (Retention time 5 min). The m^6A/A nucleoside ratio of the eltrombopag-treated sample was normalized to the corresponding value of the DMSO treated negative control. The inhibition curves were plotted using OriginPro 9.1 software (OriginLab) and fitted using nonlinear regression analysis."}, "[8]": {"tested_on": "AML cell line transplanted mouse", "parameters": "method as in PMID 22627766", "conditions": "mouse model transplanted with an AML cell line; cited from earlier work"}},
  "data": [
    {"smiles": "CC1=NN(c2ccc(C)c(C)c2)C(=O)/C1=N\\Nc1cccc(-c2cccc(C(=O)O)c2)c1O", "note": "[Eltrombopag]", "values": [
      {"measurement": "mode of enzyme inhibition", "setting": "[1]", "result": "noncompetitive inhibitor"},
      {"measurement": "remaining activity at 10 µM", "setting": "[2]", "result": "70.9 ± 2.4", "unit": "%"},
      {"measurement": "remaining activity at 10 µM", "setting": "[3]", "result": "130 ± 4", "unit": "%"},
      {"measurement": "GI50", "setting": "[4]", "result": "10.4 ± 0.7", "unit": "µM"},
      {"measurement": "GI50", "setting": "[5]", "result": "12.9 ± 0.9", "unit": "µM"},
      {"measurement": "GI50", "setting": "[6]", "result": "14.3 ± 0.1", "unit": "µM"},
      {"measurement": "inhibition at 40 µM", "setting": "[7]; MOLM-13, 40 μM, 24 h, read-out: maximum m^6A inhibition", "result": 50, "unit": "%"},
      {"measurement": "IC50", "setting": "[7]; MOLM-13, 24 h treatment, read-out: IC50 of m^6A/A reduction on poly-A+-enriched mRNA", "result": "17.3 ± 3.5", "unit": "µM"},
      {"measurement": "in-vivo anti-leukemic effect (survival)", "setting": "[8]", "result": "prolonging the survival"}
    ]}
  ]
}
